In brackets after ≈: the same amount, converted by molar mass. Like-named read-outs stand apart in the source and are kept apart here. Values belong to the compound of their own block, whether it stands above or below them.
Tests used:
Staph. aureus 2620 [1] = experiment: MIC, standard microtiter assay; assay type: cell-based; settings: Staphylococcus aureus, Staph. aureus 2620, read-out: MIC
Experimental: (§1) The in vitro minimal inhibitory concentration (MIC) of the AAJ-271 complex and its factors, and vancomycin were determined for a number of microorganisms using the standard microtite'r assay procedures. The results are shown in the following tables, each of which represents a different production run of the complex.
(§2) The in vitro minimal inhibitory concentration (MIC) and the in vitro minimal bactericidal concentration (MBC) of the AAJ-271 aglycones, pseudo-aglycone and vancomycin were determined for a number of microorganisms using the standard microtiter assay procedures.

Staph. aureus 675 [2] = experiment: MIC, standard microtiter assay; assay type: cell-based; settings: Staphylococcus aureus, Staph. aureus 675, read-out: MIC
Experimental: as §1, §2

Staph. aureus HH127 [3] = experiment: MIC, standard microtiter assay; assay type: cell-based; settings: Staphylococcus aureus, Staph. aureus HH127, read-out: MIC
Experimental: as §1, §2

Staph. epidermidis 2265 [4] = experiment: MIC, standard microtiter assay; assay type: cell-based; settings: Staphylococcus epidermidis, Staph. epidermidis 2265, read-out: MIC
Experimental: as §1, §2

Staph. epidermidis 2479 [5] = experiment: MIC, standard microtiter assay; assay type: cell-based; settings: Staphylococcus epidermidis, Staph. epidermidis 2479, read-out: MIC
Experimental: as §1, §2

Staph. haemolyticus 651 [6] = experiment: MIC, standard microtiter assay; assay type: cell-based; settings: Staphylococcus haemolyticus, Staph. haemolyticus 651, read-out: MIC
Experimental: as §1, §2

Strep. faecalis 34358 [7] = experiment: MIC, standard microtiter assay; assay type: cell-based; settings: Enterococcus faecalis, Strep. faecalis 34358, read-out: MIC
Experimental: as §1, §2

Strep. faecalis 657 [8] = experiment: MIC, standard microtiter assay; assay type: cell-based; settings: Enterococcus faecalis, Strep. faecalis 657, read-out: MIC
Experimental: as §1, §2

Staph. aureus 2620 [9] = experiment: MBC, standard assay procedures; assay type: cell-based; settings: Staphylococcus aureus, Staph. aureus 2620, read-out: MBC
Experimental: (§3) The in vitro minimal bactericidal concentration (MBC) of the AAJ-271 C, C2 and C3 factors and vancomycin were determined for a number of microorganisms using standard assay procedures.
as §2

Staph. aureus 675 [10] = experiment: MBC, standard assay procedures; assay type: cell-based; settings: Staphylococcus aureus, Staph. aureus 675, read-out: MBC
Experimental: as §3, §2

Staph. aureus HH127 [11] = experiment: MBC, standard assay procedures; assay type: cell-based; settings: Staphylococcus aureus, Staph. aureus HH127, read-out: MBC
Experimental: as §3, §2

Staph. epidermidis 2265 [12] = experiment: MBC, standard assay procedures; assay type: cell-based; settings: Staphylococcus epidermidis, Staph. epidermidis 2265, read-out: MBC
Experimental: as §3, §2

Staph. epidermidis 2479 [13] = experiment: MBC, standard assay procedures; assay type: cell-based; settings: Staphylococcus epidermidis, Staph. epidermidis 2479, read-out: MBC
Experimental: as §3, §2

Staph. haemolyticus 651 [14] = experiment: MBC, standard assay procedures; assay type: cell-based; settings: Staphylococcus haemolyticus, Staph. haemolyticus 651, read-out: MBC
Experimental: as §3, §2

Strep. faecalis 34358 [15] = experiment: MBC, standard assay procedures; assay type: cell-based; settings: Enterococcus faecalis, Strep. faecalis 34358, read-out: MBC
Experimental: as §3, §2

Strep. faecalis 657 [16] = experiment: MBC, standard assay procedures; assay type: cell-based; settings: Enterococcus faecalis, Strep. faecalis 657, read-out: MBC
Experimental: as §3, §2

Staph. aureus 209P [17] = experiment: MIC, standard microtiter assay; assay type: cell-based; settings: Staphylococcus aureus; Staph. aureus 209P; Table VIII; read-out: MIC
Experimental: as §1, §2

Staph. aureus 910 [18] = experiment: MIC, standard microtiter assay; assay type: cell-based; settings: Staphylococcus aureus; Staph. aureus 910; Table VIII; read-out: MIC
Experimental: as §1, §2

Staph. epidermidis 2256 [19] = experiment: MIC, standard microtiter assay; assay type: cell-based; settings: Staphylococcus epidermidis; Staph. epidermidis 2256; Table VIII; read-out: MIC
Experimental: as §1, §2

Staph. epidermidis 2588 [20] = experiment: MIC, standard microtiter assay; assay type: cell-based; settings: Staphylococcus epidermidis; Staph. epidermidis 2588; Table VIII; read-out: MIC
Experimental: as §1, §2

[21] = system: Staph. saprophyticus 2657; experiment: MIC, standard microtiter assay; assay type: cell-based; settings: Staphylococcus saprophyticus; Staph. saprophyticus 2657; Table VIII; read-out: MIC
Experimental: as §1, §2

[22] = system: Strep. pyogenes (Group A); experiment: MIC, standard microtiter assay; assay type: cell-based; settings: Streptococcus pyogenes; Strep. pyogenes (Group A); Table VIII; read-out: MIC
Experimental: as §1, §2

[23] = system: Staph. aureus 209P vancomycin resistant mutant; experiment: MIC, standard microtiter assay; assay type: cell-based; settings: Staphylococcus aureus, read-out: MIC in μg/ml
Experimental: as §2

Staph. epidermidis 2261 [24] = experiment: MIC, standard microtiter assay; assay type: cell-based; settings: Staphylococcus epidermidis; Staph. epidermidis 2261; Table VIII; read-out: MIC
Experimental: as §2

[25] = system: Staph. aureus 209P vancomycin resistant mutant; experiment: MBC, standard assay procedures; assay type: cell-based; settings: Staphylococcus aureus, read-out: MBC in μg/ml
Experimental: as §2

Staph. aureus 209P [26] = experiment: MBC, standard assay procedures; assay type: cell-based; settings: Staphylococcus aureus; Staph. aureus 209P; Table VIII; read-out: MBC
Experimental: as §2

Staph. aureus 910 [27] = experiment: MBC, standard assay procedures; assay type: cell-based; settings: Staphylococcus aureus; Staph. aureus 910; Table VIII; read-out: MBC
Experimental: as §2

Staph. epidermidis 2256 [28] = experiment: MBC, standard assay procedures; assay type: cell-based; settings: Staphylococcus epidermidis; Staph. epidermidis 2256; Table VIII; read-out: MBC
Experimental: as §2

Staph. epidermidis 2261 [29] = experiment: MBC, standard assay procedures; assay type: cell-based; settings: Staphylococcus epidermidis; Staph. epidermidis 2261; Table VIII; read-out: MBC
Experimental: as §2

Staph. epidermidis 2588 [30] = experiment: MBC, standard assay procedures; assay type: cell-based; settings: Staphylococcus epidermidis; Staph. epidermidis 2588; Table VIII; read-out: MBC
Experimental: as §2

[31] = system: Staph. saprophyticus 2657; experiment: MBC, standard assay procedures; assay type: cell-based; settings: Staphylococcus saprophyticus; Staph. saprophyticus 2657; Table VIII; read-out: MBC
Experimental: as §2

[32] = system: Strep. pyogenes (Group A); experiment: MBC, standard assay procedures; assay type: cell-based; settings: Streptococcus pyogenes; Strep. pyogenes (Group A); Table VIII; read-out: MBC
Experimental: as §2

Staph. aureus HH127 [33] = experiment: Mouse protection assay; assay type: in vivo; settings: Staphylococcus aureus, 1 h; mice; intraperitoneal s.c. infection; Staph. aureus HH127, Dosage as No. of LD50's = 4; treatment one hour post infection; Table X; read-out: ED50
Strep. faecalis 34358 [34] = experiment: Mouse protection assay; assay type: in vivo; settings: Enterococcus faecalis, 1 h; mice; intraperitoneal s.c. infection; Strep. faecalis 34358, Dosage as No. of LD50's = 3.5; treatment one hour post infection; Table X; read-out: ED50
Staph. aureus 2630 = experiment: Mouse protection assay; assay type: in vivo; settings: Staphylococcus aureus, 2630, 1 h

- MIC (Staph. aureus 2620 [1]; Table IX): 3.1 µg/mL (≈ 2.25 µM)
- MIC (Staph. aureus 675 [2]; Table IX): 3.1 µg/mL (≈ 2.25 µM)
- MIC (Staph. aureus HH127 [3]; Table IX): 3.1 µg/mL (≈ 2.25 µM)
- MIC (Staph. epidermidis 2265 [4]; Table IX): 12.5 µg/mL (≈ 9.09 µM)
- MIC (Staph. epidermidis 2479 [5]; Table IX): 6.3 µg/mL (≈ 4.58 µM)
- MIC (Strep. faecalis 34358 [7]; Table IX): 3.1 µg/mL (≈ 2.25 µM)
- MIC (Strep. faecalis 657 [8]; Table IX): 3.1 µg/mL (≈ 2.25 µM)
Compound: CNC1C(=O)NC2Cc3ccc(cc3)Oc3cc4cc(c3O)Oc3ccc(cc3Cl)C(O)C3NC(=O)C(NC(=O)C4NC(=O)C(NC2=O)c2cc(cc(O)c2Cl)Oc2cc1ccc2O)c1ccc(O)c(c1)-c1c(O[C@H]2O[C@H](CO)[C@@H](O)[C@H](O)[C@@H]2O)cc(O)cc1C(C(=O)O)NC3=O (stereo partly drawn) [AAJ 271 Pseudo-aglycone]
- MIC (Staph. haemolyticus 651 [6]; Table IX): 25 µg/mL (≈ 18.2 µM)
- MBC (Staph. aureus 2620 [9]; Table IX): 3.1 µg/mL (≈ 2.25 µM)
- MBC (Staph. aureus 675 [10]; Table IX): 3.1 µg/mL (≈ 2.25 µM)
- MBC (Staph. aureus HH127 [11]; Table IX): 6.3 µg/mL (≈ 4.58 µM)
- MBC (Staph. epidermidis 2265 [12]; Table IX): 12.5 µg/mL (≈ 9.09 µM)
- MBC (Staph. epidermidis 2479 [13]; Table IX): 6.3 µg/mL (≈ 4.58 µM)
- MBC (Staph. haemolyticus 651 [14]; Table IX): 25 µg/mL (≈ 18.2 µM)
- MBC (Strep. faecalis 34358 [15]; Table IX): 3.1 µg/mL (≈ 2.25 µM)
- MBC (Strep. faecalis 657 [16]; Table IX): 3.1 µg/mL (≈ 2.25 µM)

Compound: CNC1C(=O)NC2Cc3ccc(cc3)Oc3cc4cc(c3O)Oc3ccc(cc3Cl)C(O)C3NC(=O)C(NC(=O)C4NC(=O)C(NC2=O)c2cc(cc(O)c2Cl)Oc2cc1ccc2O)c1ccc(O)c(c1)-c1c(O)cc(O)cc1C(C(=O)O)NC3=O (stereo not drawn) [Aglycone 1]
- MIC (Staph. aureus 209P [17]): 0.4 µg/mL (≈ 0.33 µM)
- MIC (Staph. aureus 2620 [1]; Table VIII): 0.4 µg/mL (≈ 0.33 µM)
- MIC (Staph. aureus 675 [2]; Table VIII): 0.8 µg/mL (≈ 0.66 µM)
- MIC (Staph. aureus 910 [18]): 0.4 µg/mL (≈ 0.33 µM)
- MIC (Staph. aureus HH127 [3]; Table VIII): 0.4 µg/mL (≈ 0.33 µM)
- MIC (Staph. epidermidis 2256 [19]): 1.6 µg/mL (≈ 1.32 µM)
- MIC (Staph. epidermidis 2265 [4]; Table VIII): 0.4 µg/mL (≈ 0.33 µM)
- MIC (Staph. epidermidis 2479 [5]; Table VIII): 0.8 µg/mL (≈ 0.66 µM)
- MIC (Staph. epidermidis 2588 [20]): 0.8 µg/mL (≈ 0.66 µM)
- MIC (Staph. haemolyticus 651 [6]; Table VIII): 3.1 µg/mL (≈ 2.56 µM)
- MIC [21]: 0.8 µg/mL (≈ 0.66 µM)
- MIC (Strep. faecalis 34358 [7]; Table VIII): 1.6 µg/mL (≈ 1.32 µM)
- MIC (Strep. faecalis 657 [8]; Table VIII): 1.6 µg/mL (≈ 1.32 µM)
- MIC [22]: 0.8 µg/mL (≈ 0.66 µM)
- MIC [23]: 25 µg/mL (≈ 20.6 µM)
- MIC (Staph. epidermidis 2261 [24]): 0.8 µg/mL (≈ 0.66 µM)
- MBC (Staph. aureus 2620 [9]; Table VIII): 3.1 µg/mL (≈ 2.56 µM)
- MBC (Staph. aureus 675 [10]; Table VIII): 6.3 µg/mL (≈ 5.19 µM)
- MBC (Staph. aureus HH127 [11]; Table VIII): 1.6 µg/mL (≈ 1.32 µM)
- MBC (Staph. epidermidis 2265 [12]; Table VIII): 0.4 µg/mL (≈ 0.33 µM)
- MBC (Staph. epidermidis 2479 [13]; Table VIII): 6.3 µg/mL (≈ 5.19 µM)
- MBC (Staph. haemolyticus 651 [14]; Table VIII): 6.3 µg/mL (≈ 5.19 µM)
- MBC (Strep. faecalis 34358 [15]; Table VIII): 100 µg/mL (≈ 82.4 µM)
- MBC (Strep. faecalis 657 [16]; Table VIII): 100 µg/mL (≈ 82.4 µM)
- MBC [25]: 25 µg/mL (≈ 20.6 µM)
- MBC (Staph. aureus 209P [26]): 3.1 µg/mL (≈ 2.56 µM)
- MBC (Staph. aureus 910 [27]): 3.1 µg/mL (≈ 2.56 µM)
- MBC (Staph. epidermidis 2256 [28]): 1.6 µg/mL (≈ 1.32 µM)
- MBC (Staph. epidermidis 2261 [29]): 1.6 µg/mL (≈ 1.32 µM)
- MBC (Staph. epidermidis 2588 [30]): 0.8 µg/mL (≈ 0.66 µM)
- MBC [31]: 1.6 µg/mL (≈ 1.32 µM)
- MBC [32]: 0.8 µg/mL (≈ 0.66 µM)
- ED50 (Staph. aureus HH127 [33]): 0.88 mg/kg
- ED50 (Strep. faecalis 34358 [34]): 5 mg/kg
- ED50 (Staph. aureus 2630): 6.4 mg/kg

— patent EP0255256A2, “Antibiotics produced by actinomadura parvosata” (SMITHKLINE BECKMAN CORPORATION, priority 1986, dated 1988)
